Experimental data published in US10202373B2, “Heteroaryls and uses thereof” (MILLENNIUM PHARMACEUTICALS, INC., priority 2014, dated 2019).

Molecular target: human VPS34 (Homo sapiens (Human), UniProt Q8NEB9)
Experiment: Human VPS34 enzyme assay (Adapta TR-FRET)
Type: biochemical
Settings: for inhibition at 1.11 µM: 1 h, inhibition of VPS34 at a 1.11 μM concentration, read-out: Percent Inhibition; for IC50: human VPS34 enzyme assay, IC50 ranges
Experimental: VPS34 (accession number GB:BC033004) was cloned into pDEST20-Thombin as N-terminal GST tagged fusion proteins using the Gateway system (Invitrogen, catalog#11804-013). The sequences were verified before recombinant protein expression using the Baculovirus Expression System with Gateway® Technology. For expression VPS34 was infected at 1 MOI in SF9 cells and harvested 72 hours post infection. For purification, VPS34 is purified by Glutathione Sepharose 4 Fast Flow (GE Healthcare #17-5132-03) followed by HiTrap Q (GE Healthcare #17-1153-01). Human VPS34 Enzyme Assay Method 100 nL compounds in DMSO are added to wells of a 384 well microtitre plate (Greiner 780076). At room temperature: 5 ul VPS34 reaction buffer (Invitrogen Assay Buffer Q (diluted 1 in 5 with nanopure water) plus 2 mM DTT and 2 mM MnCl2) containing ATP (20 uM, Promega) and 200 uM PI-PS substrate (Invitrogen PV5122) is added followed immediately by 5 ul VPS34 reaction buffer (as above) containing VPS34 (5 nM, Millennium Protein Sciences Group) and the mixture is incubated with shaking at room temperature for 1 hour. Then 5 ul […]-detect mix (as per Invitrogen Adapta Assay kit (PV5009) instructions (contains kinase quench buffer, TR-FRET buffer, Adapta Eu anti-ADP antibody and Alexa Fluor 647 ADP tracer)) is added to quench the reaction. The plates are then incubated for 30 minutes at room temperature with shaking and then read on a BMG PheraStar Plus reader. For the assay methods described above, test compound percent inhibition, at various concentrations, is calculated relative to control (DMSO and EDTA) treated samples. Compound concentration versus percent inhibition curves are fitted to generate IC50 values. One skilled in the art will appreciate that the values generated either as percentage inhibition at a single concentration or IC50 values are subject to experimental variation. […] Additionally, compounds of the invention that inhibit VPS34 are described with the following IC50 ranges: […]

Chain of human VPS34 (Q8NEB9 whole entry): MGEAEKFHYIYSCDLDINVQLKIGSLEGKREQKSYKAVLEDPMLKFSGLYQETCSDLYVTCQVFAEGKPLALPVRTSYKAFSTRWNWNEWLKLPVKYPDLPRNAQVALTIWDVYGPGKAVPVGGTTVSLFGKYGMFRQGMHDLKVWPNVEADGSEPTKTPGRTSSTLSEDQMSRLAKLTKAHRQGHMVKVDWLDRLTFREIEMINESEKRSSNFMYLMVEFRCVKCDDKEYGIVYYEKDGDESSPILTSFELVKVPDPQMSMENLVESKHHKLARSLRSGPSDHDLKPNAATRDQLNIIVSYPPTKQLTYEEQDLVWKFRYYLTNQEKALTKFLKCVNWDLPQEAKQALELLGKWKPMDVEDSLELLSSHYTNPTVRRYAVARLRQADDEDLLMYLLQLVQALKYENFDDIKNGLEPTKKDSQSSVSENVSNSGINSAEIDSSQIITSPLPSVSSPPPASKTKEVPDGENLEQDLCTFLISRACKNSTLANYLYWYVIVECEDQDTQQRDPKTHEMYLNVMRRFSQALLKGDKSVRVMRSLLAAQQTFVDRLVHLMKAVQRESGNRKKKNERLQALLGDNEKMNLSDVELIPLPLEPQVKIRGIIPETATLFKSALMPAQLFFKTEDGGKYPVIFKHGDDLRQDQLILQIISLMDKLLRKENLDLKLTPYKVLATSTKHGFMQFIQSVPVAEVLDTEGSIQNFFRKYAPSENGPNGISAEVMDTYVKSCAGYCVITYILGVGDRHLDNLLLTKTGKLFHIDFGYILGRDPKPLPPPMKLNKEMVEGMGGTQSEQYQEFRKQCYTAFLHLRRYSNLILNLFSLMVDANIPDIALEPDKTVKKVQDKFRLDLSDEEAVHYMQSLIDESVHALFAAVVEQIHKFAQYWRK

Compound	inhibition at 1.11 µM	IC50
CCS(=O)(=O)n1ccc2c(-c3ccnc(NC(C)=O)c3)cnc(C)c21 [Compound I-16, N-{4-[1-(ethylsulfonyl)-7-methyl-1H-pyrrolo[2,3-c]pyridin-4-yl]pyridin-2-yl}acetamide]	> 99%	< 10 nM
O=S(=O)(C1CC1)n1ccc2c(-c3ccnc(Nc4ccncn4)c3)cncc21 [Compound I-49, N-{4-[1-(cyclopropylsulfonyl)-1H-pyrrolo[2,3-c]pyridin-4-yl]pyridin-2-yl}pyrimidin-4-amine]	88%	10 to 50 nM
CCOC(=O)Nc1cc(-c2cnc(C)c3c2ccn3S(=O)(=O)C2CC2)ccn1 [Compound I-42, ethyl {4-[1-(cyclopropylsulfonyl)-7-methyl-1H-pyrrolo[2,3-c]pyridin-4-yl]pyridin-2-yl}carbamate]	> 99%	< 10 nM
CCOC(=O)Nc1cc(-c2cncc3c2ccn3S(C)(=O)=O)ccn1 [Compound I-25, ethyl {4-[1-(methylsulfonyl)-1H-pyrrolo[2,3-c]pyridin-4-yl]pyridin-2-yl}carbamate]	> 99%	< 10 nM
Cc1ncc(-c2ccnc(NC(=O)CO)c2)c2ccn(S(=O)(=O)C3CC3)c12 [Compound I-48, N-{4-[1-(cyclopropylsulfonyl)-7-methyl-1H-pyrrolo[2,3-c]pyridin-4-yl]pyridin-2-yl}-2-hydroxyacetamide]	> 99%	10 to 50 nM
CC(=O)Nc1cc(-c2cnc(C)c3c2c(C)cn3S(C)(=O)=O)ccn1 [Compound I-5, N-{4-[3,7-dimethyl-1-(methylsulfonyl)-1H-pyrrolo[2,3-c]pyridin-4-yl]pyridin-2-yl}acetamide]	> 99%	50 to 100 nM
Cc1ncc(-c2ccnc(NC(=O)C3CC3(F)F)c2)c2ccn(S(C)(=O)=O)c12 (racemic) [Compound I-35, (rac)-2,2-difluoro-N-{4-[7-methyl-1-(methylsulfonyl)-1H-pyrrolo[2,3-c]pyridin-4-yl]pyridin-2-yl}cyclopropanecarboxamide]	> 99%	< 10 nM
COC(=O)Nc1cc(-c2cnc(C)c3c2ccn3S(C)(=O)=O)ccn1 [Compound I-38, methyl {4-[7-methyl-1-(methylsulfonyl)-1H-pyrrolo[2,3-c]pyridin-4-yl]pyridin-2-yl}carbamate]	99%	10 to 50 nM
CC(=O)Nc1cc(-c2cncc3c2ccn3S(C)(=O)=O)ccn1 [Compound I-21, N-{4-[1-(methylsulfonyl)-1H-pyrrolo[2,3-]pyridin-4-yl]pyridin-2-yl}acetamide]	> 99%	10 to 50 nM
CCc1ncc(-c2ccnc(NC(C)=O)c2)c2ccn(S(C)(=O)=O)c12 [Compound I-3, N-{4-[7-ethyl-1-(methylsulfonyl)-1H-pyrrolo[2,3-c]pyridin-4-yl]pyridin-2-yl}acetamide]	> 99%	< 10 nM
CC(=O)Nc1cc(-c2cnc(C)c3c2ccn3S(=O)(=O)N(C)C)ccn1 [Compound I-7, N-{4-[1-(dimethylsulfamoyl)-7-methyl-1H-pyrrolo[2,3-c]pyridin-4-yl]pyridin-2-yl}acetamide]	> 99%	< 10 nM
CC(=O)Nc1cc(-c2cnc(C)c3c2ccn3S(C)(=O)=O)ccn1 [Compound I-45, N-{4-[7-methyl-1-(methylsulfonyl)-1H-pyrrolo[2,3-c]pyridin-4-yl]pyridin-2-yl}acetamide]	> 99%	10 to 50 nM
COC(=O)Nc1cc(-c2cnc(C)c3c2ccn3S(=O)(=O)c2ccccc2)ccn1 [Compound I-2, methyl {4-[7-methyl-1-(phenylsulfonyl)-1H-pyrrolo[2,3-c]pyridin-4-yl]pyridin-2-yl}carbamate]	> 99%	< 10 nM
COC(=O)Nc1cc(-c2cnc(C)c3c2ccn3S(=O)(=O)C2CCCC2)ccn1 [Compound I-12, methyl {4-[1-(cyclopentylsulfonyl)-7-methyl-1H-pyrrolo[2,3-c]pyridin-4-yl]pyridin-2-yl}carbamate]	> 99%	10 to 50 nM
CC(=O)Nc1cc(-c2cnc(N(C)C)c3c2ccn3S(=O)(=O)C2CC2)ccn1 [Compound I-18, N-{4-[1-(cyclopropylsulfonyl)-7-(dimethylamino)-1H-pyrrolo[2,3-c]pyridin-4-yl]pyridin-2-yl}acetamide]	> 99%	10 to 50 nM
CC(=O)Nc1cc(-c2cnc(C)c3c2c(F)cn3S(=O)(=O)C2CC2)ccn1 [Compound I-14, N-{4-[1-(cyclopropylsulfonyl)-3-fluoro-7-methyl-1H-pyrrolo[2,3-c]pyridin-4-yl]pyridin-2-yl}acetamide]	> 99%	10 to 50 nM
COC(=O)Nc1cc(-c2cncc3c2ccn3S(=O)(=O)c2ccccc2)ccn1 [Compound I-28, methyl {4-[1-(phenylsulfonyl)-1H-pyrrolo[2,3-c]pyridin-4-yl]pyridin-2-yl}carbamate]	> 99%	10 to 50 nM
